Experimental data: paper PMC9078123, “Ahmpatinin ^iBu, a new HIV-1 protease inhibitor, from Streptomyces sp. CPCC 202950” (RSC Advances, 2018)
Square brackets hold non-standard residues; d marks the D form. Peptide text beside a SMILES is read from it. * marks the point of attachment. X1 = COc1ccc(C[C@H](N*)[C@@H](O)CC(=O)O)cc1; Sta = CC(C)C[C@H](N)[C@@H](O)CC(=O)O; Isobutyryl = CC(C)C(=O)*; Propionyl = CCC(=O)*

Experiments:
HIV-1 protease = target: T1, HIV-1 protease (Human immunodeficiency virus type 1 group M subtype B, UniProt P04585); assay: Inhibition of HIV-1 protease activity; format: biochemical
T1 construct: HIV-1 PR is a 22 kDa dimeric aspartyl protease
Source text: Analysis of the inhibition of HIV-1 protease activity

[1] = Cytotoxic activity assay, Hela; settings: human, HeLa cervical cancer cells
Description: (§1) Cervical cancer (Hela), hepatocellular carcinoma (HepG2), and human osteosarcoma (U2OS) cell lines were obtained from the National Infrastructure of Cell Line Resource (Beijing, China).
(§2) This was measured using the previously described protocol.[34]

[2] = Cytotoxic activity assay, U2OS; settings: human, U2OS osteosarcoma cells
Description: as §1, §2

[3] = Cytotoxic activity assay, HepG2; settings: human, HepG2 hepatocellular carcinoma cells
Description: as §1, §2

Compound	IC50 (HIV-1 protease) [nM]	also measured
COc1ccc(C[C@H](NC(=O)[C@H](C)NC(=O)C[C@H](O)[C@H](CC(C)C)NC(=O)[C@@H](NC(=O)[C@@H](NC(=O)C(C)C)C(C)C)C(C)C)[C@@H](O)CC(=O)O)cc1 [Compound 1, ^iBu-L-Val^1-L-Val^2-(3S,4S)-Sta-L-Ala-(3S,4S)-Ahmppa] (Isobutyryl-VV[Sta]A-X1)	1.79	
COC(=O)C[C@H](O)[C@H](CC(C)C)NC(=O)[C@H](C)NC(=O)C[C@H](O)[C@H](CC(C)C)NC(=O)[C@@H](NC(=O)[C@@H](NC(C)=O)C(C)C)C(C)C [Compound 7, pepstatin Ac methyl ester] (Ac-VV[Sta]A[Sta]-OMe)	203	
CC(C)C[C@H](NC(=O)[C@H](C)NC(=O)C[C@H](O)[C@H](CC(C)C)NC(=O)[C@@H](NC(=O)[C@@H](NC(=O)C(C)C)C(C)C)C(C)C)[C@@H](O)CC(=O)O [Compound 6, pepsinostreptin] (Isobutyryl-VV[Sta]A[Sta]-OH)	9.9	
CCC(=O)N[C@H](C(=O)N[C@H](C(=O)N[C@@H](CC(C)C)[C@@H](O)CC(=O)N[C@@H](C)C(=O)N[C@@H](CC(C)C)[C@@H](O)CC(=O)OC)C(C)C)C(C)C [Compound 8, pepstatin Pr methyl ester] (Propionyl-VV[Sta]A[Sta]-OMe)	139	
CC(C)C[C@H](NC(=O)[C@@H](NC(=O)[C@@H](NC(=O)C(C)C)C(C)C)C(C)C)[C@@H](O)CC(=O)N[C@@H](C)C(=O)O [Compound 2, ^iBu-L-Val^1-L-Val^2-(3S,4S)-Sta-L-Ala] (Isobutyryl-VV[Sta]A-OH)	3190	
CCC(=O)N[C@H](C(=O)N[C@H](C(=O)N[C@@H](CC(C)C)[C@@H](O)CC(=O)N[C@@H](C)C(=O)N[C@@H](CC(C)C)[C@@H](O)CC(=O)O)C(C)C)C(C)C [Compound 5, pepstatin Pr] (Propionyl-VV[Sta]A[Sta]-OH)	22.3	
COc1cccc2c1C(=O)c1c(O)c3c(c(O)c1C2=O)C[C@@](O)(C(=O)CO)C[C@@H]3O[C@H]1C[C@H](N)[C@H](O)[C@H](C)O1 [doxorubicin]		IC50 [1]: 1420 nM; IC50 [2]: 2780 nM; IC50 [3]: 1560 nM
COC(=O)C[C@H](O)[C@H](CC(C)C)NC(=O)[C@H](C)NC(=O)C[C@H](O)[C@H](CC(C)C)NC(=O)[C@@H](NC(=O)[C@@H](NC(=O)C(C)C)C(C)C)C(C)C [Compound 9, pepsinostreptin methyl ester] (Isobutyryl-VV[Sta]A[Sta]-OMe)	782	
CC(C)CCCCC(=O)N[C@H]1CCN(CC(=O)O)C1=O [Compound 3, (−)-(S)-2-[3-(6-methylheptanamido)-2-oxopyrrolidin-1-yl]acetic acid]	> 10000	inhibitory activity against HIV-1 protease (in words) (HIV-1 protease; preliminary in vitro assay): inactive
